Activity calls are given as the source filed them.
Assays:
[1] = target: Sphingosine 1-phosphate receptor 2 (Homo sapiens, UniProt O95136); experiment: Dose Response Cell Based Assay for Agonists of the S1P2 Receptor of Purchased Analogues. [Related pubchem assays: 729, 843, 854, 736 ]; type: functional
Leucine aminopeptidase = target: T1, Leucine aminopeptidase (Plasmodium falciparum 3D7, UniProt Q8IL11); experiment: P. falciparum M17LAP inhibitors, primary screen, biochemical, fluorogenic H-Leu-NHMec substrate, 1536-well (AID 1619); type: functional
T1 sequence (Q8IL11 whole entry): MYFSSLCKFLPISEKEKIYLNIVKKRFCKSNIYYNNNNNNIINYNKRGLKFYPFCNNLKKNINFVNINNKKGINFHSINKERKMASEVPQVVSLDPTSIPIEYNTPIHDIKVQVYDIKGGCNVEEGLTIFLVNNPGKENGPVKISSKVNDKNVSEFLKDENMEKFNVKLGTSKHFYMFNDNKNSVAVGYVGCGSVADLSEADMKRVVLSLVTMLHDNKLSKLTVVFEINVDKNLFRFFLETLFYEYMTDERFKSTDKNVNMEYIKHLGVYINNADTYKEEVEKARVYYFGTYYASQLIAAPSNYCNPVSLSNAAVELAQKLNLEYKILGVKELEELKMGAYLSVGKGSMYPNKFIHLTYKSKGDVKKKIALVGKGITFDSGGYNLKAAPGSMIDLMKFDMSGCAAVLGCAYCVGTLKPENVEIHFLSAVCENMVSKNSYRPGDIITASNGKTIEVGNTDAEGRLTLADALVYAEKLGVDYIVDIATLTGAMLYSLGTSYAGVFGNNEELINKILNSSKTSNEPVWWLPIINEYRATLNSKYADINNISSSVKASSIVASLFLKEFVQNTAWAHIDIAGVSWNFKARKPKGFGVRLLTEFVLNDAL

Procathepsin L = Procathepsin L (Homo sapiens, UniProt P07711); experiment: cathepsin L inhibitors, dose response, counter-screen for M1/M17 aminopeptidase inhibitor project, biochemical, QFRET, 1536-well (AID 2214)
Sequence of Procathepsin L (P07711 whole entry): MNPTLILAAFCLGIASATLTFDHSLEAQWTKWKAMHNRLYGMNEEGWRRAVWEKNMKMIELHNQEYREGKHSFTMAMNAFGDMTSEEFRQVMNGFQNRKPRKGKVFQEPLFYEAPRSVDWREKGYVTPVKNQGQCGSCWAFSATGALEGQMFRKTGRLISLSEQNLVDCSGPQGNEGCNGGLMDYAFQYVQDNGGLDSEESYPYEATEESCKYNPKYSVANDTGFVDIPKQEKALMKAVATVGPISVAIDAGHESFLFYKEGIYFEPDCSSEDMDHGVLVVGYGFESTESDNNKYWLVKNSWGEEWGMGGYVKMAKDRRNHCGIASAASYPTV

[2] = target: T2, Replicative DNA helicase DnaB (Mycobacterium tuberculosis, UniProt P9WMR3); experiment: DnaB intein splicing inhibitors, dose response, biochemical, cell-free fluorescence (AID 449749); type: functional
T2 sequence (P9WMR3 whole entry): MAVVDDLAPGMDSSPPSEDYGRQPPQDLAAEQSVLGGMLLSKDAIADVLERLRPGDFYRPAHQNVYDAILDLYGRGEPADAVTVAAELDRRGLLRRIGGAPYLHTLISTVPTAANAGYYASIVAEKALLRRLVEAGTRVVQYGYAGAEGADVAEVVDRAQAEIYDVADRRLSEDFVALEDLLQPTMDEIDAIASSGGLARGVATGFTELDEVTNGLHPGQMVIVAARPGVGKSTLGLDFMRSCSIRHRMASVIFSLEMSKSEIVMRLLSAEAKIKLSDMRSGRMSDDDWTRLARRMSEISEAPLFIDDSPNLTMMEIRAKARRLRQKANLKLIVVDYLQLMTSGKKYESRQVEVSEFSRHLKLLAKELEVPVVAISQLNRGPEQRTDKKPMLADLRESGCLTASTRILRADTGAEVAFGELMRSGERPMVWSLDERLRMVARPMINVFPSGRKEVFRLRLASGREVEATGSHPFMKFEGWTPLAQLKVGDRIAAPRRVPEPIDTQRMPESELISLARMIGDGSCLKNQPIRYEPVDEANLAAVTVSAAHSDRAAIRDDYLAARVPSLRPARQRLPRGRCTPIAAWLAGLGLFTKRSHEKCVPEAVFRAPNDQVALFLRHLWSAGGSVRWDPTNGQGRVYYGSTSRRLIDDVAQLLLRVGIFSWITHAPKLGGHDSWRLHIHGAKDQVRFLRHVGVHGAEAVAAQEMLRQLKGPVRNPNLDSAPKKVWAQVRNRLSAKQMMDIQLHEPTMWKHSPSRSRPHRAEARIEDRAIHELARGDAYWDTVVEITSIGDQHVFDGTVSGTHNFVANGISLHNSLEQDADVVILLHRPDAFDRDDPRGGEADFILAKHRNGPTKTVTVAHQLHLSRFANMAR

Protein RecA = target: T3, Protein RecA (Mycobacterium tuberculosis, UniProt P9WHJ3); experiment: Fluorescence Cell-Free Homogeneous Dose Retest to Identify Inhibitors of RecA-Intein Splicing Activity. [Related pubchem assays (depositor defined):AID2097, AID2223, AID489010, AID492950]; type: functional
T3 sequence (P9WHJ3 whole entry): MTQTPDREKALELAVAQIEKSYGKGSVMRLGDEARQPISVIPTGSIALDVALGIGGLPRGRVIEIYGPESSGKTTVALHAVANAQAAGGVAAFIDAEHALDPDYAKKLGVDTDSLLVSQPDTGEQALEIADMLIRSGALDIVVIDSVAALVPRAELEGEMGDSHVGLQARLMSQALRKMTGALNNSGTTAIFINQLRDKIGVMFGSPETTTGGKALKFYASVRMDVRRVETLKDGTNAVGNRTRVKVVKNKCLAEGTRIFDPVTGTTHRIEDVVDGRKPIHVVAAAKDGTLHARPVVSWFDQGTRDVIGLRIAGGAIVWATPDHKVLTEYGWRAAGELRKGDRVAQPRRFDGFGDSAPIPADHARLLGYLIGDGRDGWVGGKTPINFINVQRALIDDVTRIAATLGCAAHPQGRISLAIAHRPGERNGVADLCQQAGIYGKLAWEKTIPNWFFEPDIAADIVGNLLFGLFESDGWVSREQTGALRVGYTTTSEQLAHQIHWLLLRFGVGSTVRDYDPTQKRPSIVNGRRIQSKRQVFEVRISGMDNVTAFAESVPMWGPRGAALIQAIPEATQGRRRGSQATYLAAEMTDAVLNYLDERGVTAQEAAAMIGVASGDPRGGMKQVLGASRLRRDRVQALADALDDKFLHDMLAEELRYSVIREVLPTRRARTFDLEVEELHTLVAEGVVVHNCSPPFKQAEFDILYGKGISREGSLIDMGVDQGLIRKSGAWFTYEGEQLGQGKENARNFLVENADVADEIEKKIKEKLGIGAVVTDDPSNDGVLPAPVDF

[3] = target: Dual specificity tyrosine-phosphorylation-regulated kinase 1A (Rattus norvegicus, UniProt Q63470); type: biochemical, Homo sapiens
Aspartyl aminopeptidase = target: T4, Aspartyl aminopeptidase (Plasmodium falciparum 3D7, UniProt Q8I2J3); experiment: Counterscreen for inhibitors of M1 and M17 aminopeptidases: QFRET-based biochemical high throughput dose response assay for inhibitors of the Plasmodium falciparum M18 Aspartyl Aminopeptidase (PFM18AAP). [Related PubChem assays: 1619 (Screening assay (M17LAP inhibitors).), 1445 (Screening assay (M1AAP inhibitors).)]
T4 sequence (Q8I2J3 whole entry): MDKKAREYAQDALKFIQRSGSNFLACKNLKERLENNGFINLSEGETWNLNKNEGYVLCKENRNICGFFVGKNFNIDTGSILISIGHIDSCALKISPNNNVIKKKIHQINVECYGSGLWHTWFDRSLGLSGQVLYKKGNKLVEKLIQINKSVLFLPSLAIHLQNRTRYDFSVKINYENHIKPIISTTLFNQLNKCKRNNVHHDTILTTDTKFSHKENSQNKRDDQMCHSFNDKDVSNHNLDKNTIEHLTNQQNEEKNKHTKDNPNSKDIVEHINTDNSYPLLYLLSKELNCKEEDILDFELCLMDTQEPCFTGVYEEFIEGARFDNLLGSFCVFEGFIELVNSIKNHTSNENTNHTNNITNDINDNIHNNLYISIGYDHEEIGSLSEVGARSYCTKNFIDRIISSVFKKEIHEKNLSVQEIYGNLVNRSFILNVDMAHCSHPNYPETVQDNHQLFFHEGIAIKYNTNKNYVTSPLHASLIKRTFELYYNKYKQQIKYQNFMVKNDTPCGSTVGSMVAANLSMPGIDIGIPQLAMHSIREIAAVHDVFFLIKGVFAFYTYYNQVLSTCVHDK

[4] = target: Sphingosine 1-phosphate receptor 3 (Homo sapiens, UniProt Q99500); experiment: Dose response cell-based high throughput screening assay for antagonists of the Sphingosine 1-Phosphate Receptor 3 (S1P3). [Related pubchem assays: 1429, 485 ]; type: functional
Sequence of Sphingosine 1-phosphate receptor 3 (Q99500 whole entry): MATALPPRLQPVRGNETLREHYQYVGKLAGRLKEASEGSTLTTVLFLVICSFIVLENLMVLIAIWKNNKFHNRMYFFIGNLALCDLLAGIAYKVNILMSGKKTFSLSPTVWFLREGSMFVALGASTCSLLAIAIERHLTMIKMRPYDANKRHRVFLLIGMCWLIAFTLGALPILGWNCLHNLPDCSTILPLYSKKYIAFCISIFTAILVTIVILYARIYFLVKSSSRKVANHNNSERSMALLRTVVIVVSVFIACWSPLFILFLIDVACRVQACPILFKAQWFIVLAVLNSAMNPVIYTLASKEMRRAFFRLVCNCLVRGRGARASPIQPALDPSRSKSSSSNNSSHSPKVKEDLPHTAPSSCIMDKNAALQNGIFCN

[5] = target: 5-hydroxytryptamine receptor 1E (Homo sapiens, UniProt P28566); experiment: Counterscreen assay for S1P3 antagonists: Dose response cell-based high throughput screening assay to identify antagonists of the 5-Hydroxytryptamine Receptor Subtype 1E (5HT1E). [Related pubchem assays: 1429, 485 ]; type: functional
Sequence of 5-hydroxytryptamine receptor 1E (P28566 whole entry): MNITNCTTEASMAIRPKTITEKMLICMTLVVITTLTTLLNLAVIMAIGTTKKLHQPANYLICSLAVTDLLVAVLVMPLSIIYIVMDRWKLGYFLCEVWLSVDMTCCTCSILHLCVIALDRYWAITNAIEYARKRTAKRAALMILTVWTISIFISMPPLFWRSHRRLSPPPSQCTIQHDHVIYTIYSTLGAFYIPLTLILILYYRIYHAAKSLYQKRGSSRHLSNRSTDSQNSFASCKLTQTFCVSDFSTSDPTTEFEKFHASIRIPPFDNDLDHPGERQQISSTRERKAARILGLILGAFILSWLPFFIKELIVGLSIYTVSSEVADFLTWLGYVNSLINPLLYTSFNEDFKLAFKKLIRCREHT

Sequence of Sphingosine 1-phosphate receptor 2 (O95136 whole entry): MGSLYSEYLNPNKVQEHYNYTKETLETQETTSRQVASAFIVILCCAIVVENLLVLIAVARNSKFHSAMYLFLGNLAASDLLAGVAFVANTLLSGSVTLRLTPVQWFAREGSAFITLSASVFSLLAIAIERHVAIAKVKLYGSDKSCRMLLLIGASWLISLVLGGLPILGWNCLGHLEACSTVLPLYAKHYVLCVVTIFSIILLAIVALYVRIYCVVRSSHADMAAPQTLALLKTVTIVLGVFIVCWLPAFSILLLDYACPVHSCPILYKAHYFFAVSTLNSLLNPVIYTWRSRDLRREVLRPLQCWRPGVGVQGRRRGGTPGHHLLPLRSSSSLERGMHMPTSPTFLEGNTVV

**Q.** `Cc1cc(C(=O)COC(=O)C2CSC3(C)CCC(=O)N23)c(C)n1Cc1ccccc1` (centres undefined) was tested. Which EC50 [1] did it give?
**A.** > 30 µM (not active)

**Q.** What does the source list for `COc1ccc(-c2cc(=O)[nH][nH]2)cc1`?
**A.** IC50 (Leucine aminopeptidase): 2.97 µM (active); IC50 (Procathepsin L): > 59.6 µM (not active); AC50 [2]: 0.882 µM (active); EC50 (Protein RecA): 0.444 µM (active); AC50 [3]: 5.54 µM (active); IC50 (Aspartyl aminopeptidase): > 73.5 µM (not active)

**Q.** Which IC50 [4] does the source give for `Cc1ccc(NC(=O)C(OC(=O)c2ccc(F)cc2)c2ccccc2)cc1Cl` (centres undefined) here?
**A.** 6.4 µM (active)

**Q.** And the IC50 [5]?
**A.** 15.6 µM (not active)

Source: ChEMBL document CHEMBL1201862, “PubChem BioAssay data set” (2004)
